Results published in ChEMBL document CHEMBL1201862, “PubChem BioAssay data set” (2004).
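Step 1: Grow cells in 96-well plates. Step 2: Expose to compound for 48 hours at 5 concentrations. Step 3: Interpolate endpoints linearly; if unreached, use highest concentration. The concentration for 50% growth inhibition is given as GI50.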 Activity calls are given as the source filed them. Rule as the data show it: active = GI50 up to about 1.1 µM and inactive = higher.

Legend:
Test in all cases: growth of human tumour cells (NCI), 48 h
NCI-H460 = tested on: NCI-H460
NCI-H522 = tested on: NCI-H522
Malme-3M = tested on: Malme-3M
SN12C = tested on: SN12C
U-251 = tested on: U-251
COLO 205 = tested on: COLO 205
SF-268 = tested on: SF-268
A498 = tested on: A498
RXF 393 = tested on: RXF 393
TK-10 = tested on: TK-10
RPMI-8226 = tested on: RPMI-8226
CAKI-1 = tested on: CAKI-1
HL-60 = tested on: HL-60
HT-29 = tested on: HT-29
SF-295 = tested on: SF-295
MDA-MB-435 = tested on: MDA-MB-435
NCI-H23 = tested on: NCI-H23
MCF7 = tested on: MCF7
PC-3 = tested on: PC-3

Measured: GI50

CC1CC(C[N+](=O)[O-])CC2(C1)OCCO2 (stereo not drawn)
inactive: NCI-H460 > 100 µM | NCI-H522 > 100 µM | Malme-3M > 100 µM | SN12C > 100 µM | U-251 > 100 µM | COLO 205 > 100 µM | SF-268 > 100 µM | A498 > 100 µM | RXF 393 > 100 µM | TK-10 > 100 µM | RPMI-8226 > 100 µM | CAKI-1 > 100 µM | HL-60 > 100 µM

Cc1n[nH]c(CC#N)n1
inactive: NCI-H522 > 100 µM | SN12C > 100 µM | HT-29 > 100 µM | U-251 > 100 µM | SF-295 > 100 µM | COLO 205 > 100 µM | SF-268 > 100 µM | RXF 393 > 100 µM | TK-10 > 100 µM | RPMI-8226 > 100 µM | MDA-MB-435 > 100 µM | NCI-H23 > 100 µM | MCF7 > 100 µM | PC-3 > 100 µM

OC1CCOc2ccccc21 (stereo not drawn)
inactive: NCI-H460 > 100 µM | NCI-H522 > 100 µM | Malme-3M > 100 µM | SN12C > 100 µM | HT-29 > 100 µM | U-251 > 100 µM | COLO 205 > 100 µM | SF-268 > 100 µM | RXF 393 > 100 µM | TK-10 > 100 µM | RPMI-8226 > 100 µM | CAKI-1 > 100 µM | NCI-H23 > 100 µM | HL-60 > 100 µM

COc1ccc(C(=O)NNC(=O)c2nsc3ccccc23)cc1
inactive: SN12C > 100 µM | HT-29 61.7 µM | U-251 41.1 µM | COLO 205 > 100 µM | SF-268 > 100 µM | RXF 393 > 100 µM | TK-10 > 100 µM | RPMI-8226 52.5 µM | NCI-H23 > 100 µM | HL-60 23.3 µM

Cn1c(=O)c(C#N)c(O)c2cc3ccccc3nc21
inactive: NCI-H460 > 100 µM | Malme-3M > 100 µM | SN12C > 100 µM | U-251 > 100 µM | SF-295 > 100 µM | COLO 205 > 100 µM | SF-268 > 100 µM | RXF 393 > 100 µM | TK-10 > 100 µM | RPMI-8226 > 100 µM | CAKI-1 > 100 µM | NCI-H23 > 100 µM | HL-60 > 100 µM

CC/C=C\C/C=C\C/C=C\CCCCCCCC(=O)OC [METHYL LINOLENATE]
inactive: NCI-H460 > 100 µM | NCI-H522 > 100 µM | Malme-3M > 100 µM | SN12C > 100 µM | HT-29 > 100 µM | U-251 > 100 µM | SF-295 > 100 µM | COLO 205 61.1 µM | SF-268 > 100 µM | A498 > 100 µM | RPMI-8226 99.3 µM | CAKI-1 > 100 µM | NCI-H23 > 100 µM | MCF7 > 100 µM | HL-60 22.8 µM

CCOC(=O)C1CCn2c(nc3c2c(=O)n(C)c(=O)n3C)S1 (stereo not drawn)
inactive: NCI-H460 > 100 µM | NCI-H522 > 100 µM | Malme-3M > 100 µM | SN12C > 100 µM | HT-29 > 100 µM | U-251 > 100 µM | SF-295 > 100 µM | SF-268 > 100 µM | RXF 393 > 100 µM | TK-10 > 100 µM | RPMI-8226 > 100 µM | CAKI-1 > 100 µM | NCI-H23 > 100 µM | HL-60 > 100 µM

O=C(NN1C(=O)CSC1c1cccc(F)c1)c1ccncc1 (stereo not drawn)
inactive: NCI-H522 > 100 µM | Malme-3M > 100 µM | SN12C > 100 µM | HT-29 > 100 µM | U-251 > 100 µM | SF-295 > 100 µM | COLO 205 > 100 µM | SF-268 > 100 µM | A498 > 100 µM | RXF 393 > 100 µM | TK-10 > 100 µM | RPMI-8226 > 100 µM | CAKI-1 > 100 µM | NCI-H23 > 100 µM | HL-60 > 100 µM

O=C1NC(O)CCN1C1OC(CO)C(O)C1O (stereo not drawn)
inactive: NCI-H460 > 250 µM | NCI-H522 > 216 µM | Malme-3M > 250 µM | SN12C > 250 µM | HT-29 > 250 µM | U-251 > 79.8 µM | SF-295 > 250 µM | COLO 205 > 250 µM | SF-268 > 250 µM | A498 > 211 µM | RXF 393 > 250 µM | RPMI-8226 > 250 µM | CAKI-1 > 250 µM | NCI-H23 > 250 µM | MCF7 > 250 µM | HL-60 > 250 µM

Cc1ccc(/N=N/C(C(=O)c2ccccc2)C(=O)c2ccccc2)cc1
inactive: NCI-H522 17.3 µM | Malme-3M 29.9 µM | SN12C 18.7 µM | HT-29 22 µM | U-251 18 µM | SF-295 24.7 µM | COLO 205 22.6 µM | SF-268 29.8 µM | A498 27.4 µM | TK-10 41.4 µM | RPMI-8226 16.9 µM | CAKI-1 27.4 µM | NCI-H23 20.5 µM | HL-60 9.08 µM

Cc1cc(=O)c2c([nH]1)NS(=O)(=O)NC2=O
inactive: NCI-H522 > 100 µM | Malme-3M > 100 µM | SN12C > 100 µM | HT-29 > 100 µM | SF-295 > 100 µM | COLO 205 > 100 µM | SF-268 > 100 µM | A498 > 100 µM | TK-10 > 100 µM | RPMI-8226 > 100 µM | CAKI-1 > 100 µM | NCI-H23 > 100 µM | HL-60 > 100 µM

O=C(OCCOC(=O)c1ccc2c(c1)C1(SCCS1)c1ccccc1-2)c1ccc2c(c1)C1(SCCS1)c1ccccc1-2
inactive: NCI-H460 > 100 µM | NCI-H522 > 100 µM | Malme-3M > 100 µM | SN12C > 100 µM | HT-29 > 100 µM | U-251 > 100 µM | SF-295 > 100 µM | COLO 205 > 100 µM | SF-268 > 100 µM | A498 > 100 µM | RPMI-8226 > 100 µM | CAKI-1 > 100 µM | NCI-H23 > 100 µM | HL-60 > 100 µM

CC1CC2=C(S(=O)(=O)c3ccccc3)CC(S(=O)(=O)c3ccccc3)(S(=O)(=O)c3ccccc3)CC21 (stereo not drawn)
inactive: NCI-H460 > 100 µM | SN12C > 100 µM | HT-29 > 100 µM | U-251 72.6 µM | SF-295 > 100 µM | COLO 205 > 100 µM | SF-268 > 100 µM | A498 > 100 µM | RXF 393 > 100 µM | TK-10 > 100 µM | RPMI-8226 88.1 µM | NCI-H23 > 100 µM | HL-60 16.6 µM

Cc1cc(=O)oc2c1cc1ccc3cccc4ccc2c1c34
inactive: NCI-H460 89.3 µM | NCI-H522 64.7 µM | Malme-3M > 100 µM | SN12C > 100 µM | HT-29 > 100 µM | U-251 41.2 µM | SF-295 40.4 µM | COLO 205 > 100 µM | SF-268 > 100 µM | A498 > 100 µM | TK-10 > 100 µM | RPMI-8226 > 100 µM | CAKI-1 > 100 µM | NCI-H23 > 100 µM | HL-60 > 100 µM
